Read-outs that look alike come from different tables or passages of the source.
Columns and labels:
[1] = tested on: Klebsiella pneumoniae (KL PN) 10031; test: agar serial dilution MIC; type: cell-based
Protocol: (§1) A stock solution of 7-[2-(4,5-dihydro-5-imino-1,3,4-thiadiazol-2-ylthio)acetamido]cephalosporanic acid as the hydrobromic acid addition salt containing 2,500 μg. of the active moiety is prepared in phosphate buffer. Two fold serial dilutions are prepared with phosphate buffer. One milliliter (ml.) quantities of each dilution are incorporated in 9 ml. seen agar in sterile Petri plates. The hardened surface is innoculated with test organisms using a Steers replicating device. The plates are incubated at 35° C. for 18 hours.
(§2) The test organisms are Bacillus subtilis (BA SU) 6633; Staphylococcus aureus (ST AU) 6538P, Smith CHP, and 3-180; Mycobacterium smegmatis (MY SM) 10143; Neisseria catarrhalis (NE CA) 8193; Pseudonomas aeruginosa (PS AE) 10145; Escherichia coli (ES CO) 9637, and 920; Escherichia intermedia (ES IN) 65-1; Salmonella paratyphi (SA PA) 11737; Enterobacter aerogenes (EN AE) 13048; Klebsiella pneumoniae (KL PN) 10031; Bordetella bronchiseptica (BO BR) 4617; Proteus vulgaris (PR VU) 6896; and Herellea species (HE SP) 9955. These organisms are grown for 18 hours in Brain heart infusion at 35° C. Prior to use the cultures are diluted 10 fold with the infusion, except in the case of Mycobacterium. The latter is grown in Emerson's broth for 5 days at 28° C. in shaker flasks and used undiluted.
(§3) A second preparation of 7-[2-(4,5-dihydro-5-imino-1,3,4-thiadiazol-2-ylthio)acetamido]cephalosporanic acid prepared as described in Example 1 is tested as described in Example 2. The minimum inhibitory concentrations obtained are as follows: […]

[2] = tested on: Mycobacterium smegmatis (MY SM) 10143; test: agar serial dilution MIC; type: cell-based; conditions: Mycolicibacterium smegmatis
Protocol: as §1, §2, §3

[3] = tested on: Acinetobacter calcoaceticus 9957; test: agar serial dilution MIC; type: cell-based
Protocol: as §1, §2
(§4) Following the procedure of Example 2 but substituting the organisms listed below the same preparation of 7-[2-(4,5-dihydro-5-imino-1,3,4-thiadiazol-2-ylthio)acetamido]cephalosporanic acid (Compound A) as used in Example 3, a third sample of the same compound, prepared as described in Example 1 (Compound B) and 7-[2-(5-acetamido-1,3,4-thiadiazol-2-ylthio)acetamido]cephalosporanic acid (Compound C) are tested to obtain the results shown: […]

[4] = tested on: Arizona arizonae 13314; test: agar serial dilution MIC; type: cell-based
Protocol: as §1, §2, §4

[5] = tested on: Citrobacter diversus 27156; test: agar serial dilution MIC; type: cell-based; conditions: Citrobacter koseri, Example 4
Protocol: as §1, §2, §4

[6] = tested on: Citrobacter freundii 8090; test: agar serial dilution MIC; type: cell-based; conditions: Example 4
Protocol: as §1, §2, §4

[7] = tested on: Edwardsiella tarda 15947; test: agar serial dilution MIC; type: cell-based
Protocol: as §1, §2, §4

[8] = tested on: Enterobacter agglomerans 27155; test: agar serial dilution MIC; type: cell-based
Protocol: as §1, §2, §4

[9] = tested on: Enterobacter cloacae 13047; test: agar serial dilution MIC; type: cell-based; conditions: Example 4
Protocol: as §1, §2, §4

[10] = tested on: Enterobacter havniae 11604; test: agar serial dilution MIC; type: cell-based; conditions: Example 4
Protocol: as §1, §2, §4

[11] = tested on: Klebsiella ozaenae 11296; test: agar serial dilution MIC; type: cell-based
Protocol: as §1, §2, §4

[12] = tested on: Klebsiella pneumoniae 13883; test: agar serial dilution MIC; type: cell-based
Protocol: as §1, §2, §4

[13] = tested on: Klebsiella rhinoscleromatis 13884; test: agar serial dilution MIC; type: cell-based; conditions: Klebsiella pneumoniae, Example 4
Protocol: as §1, §2, §4

[14] = tested on: Proteus mirabilis 9921; test: agar serial dilution MIC; type: cell-based; conditions: Example 4
Protocol: as §1, §2, §4

[15] = tested on: Proteus rettgeri 9918; test: agar serial dilution MIC; type: cell-based; conditions: Providencia rettgeri, Example 4
Protocol: as §1, §2, §4

[16] = tested on: Providencia alcalifaciens 9886; test: agar serial dilution MIC; type: cell-based; conditions: Example 4
Protocol: as §1, §2, §4

[17] = tested on: Providencia stuartii 25825; test: agar serial dilution MIC; type: cell-based; conditions: Example 4
Protocol: as §1, §2, §4

[18] = tested on: Salmonella cholera-suis 13312; test: agar serial dilution MIC; type: cell-based
Protocol: as §1, §2, §4

[19] = tested on: Salmonella enteritidis 13076; test: agar serial dilution MIC; type: cell-based; conditions: Salmonella enterica, Example 4
Protocol: as §1, §2, §4

[20] = tested on: Salmonella typhi 19430; test: agar serial dilution MIC; type: cell-based; conditions: Salmonella enterica
Protocol: as §1, §2, §4

[21] = tested on: Serratia liquefaciens 27592; test: agar serial dilution MIC; type: cell-based; conditions: Example 4
Protocol: as §1, §2, §4

[22] = tested on: Serratia marcescens 13880; test: agar serial dilution MIC; type: cell-based; conditions: Example 4
Protocol: as §1, §2, §4

[23] = tested on: Serratia rubidae 27593; test: agar serial dilution MIC; type: cell-based; conditions: Example 4
Protocol: as §1, §2, §4

[24] = tested on: Shigella boydii 9207; test: agar serial dilution MIC; type: cell-based; conditions: Example 4
Protocol: as §1, §2, §4

[25] = tested on: Shigella flexneri 12025; test: agar serial dilution MIC; type: cell-based; conditions: Example 4
Protocol: as §1, §2, §4

[26] = tested on: Shigella sonnei 11060; test: agar serial dilution MIC; type: cell-based; conditions: Example 4
Protocol: as §1, §2, §4

[27] = tested on: Staphylococcus aureaus CHP; test: mice infected intraperitoneally, single dose six hours post-infection, deaths and CD50; type: in vivo; conditions: for ED50: Staphylococcus, po, single dose, mice; for Deaths / Total No. Treated: oral
Protocol: Mice are infected intraperitoneally with a standardized suspension of Staphylococcus aureaus CHP in 5% gastric mucin. The animals are randomized. Six hours post-infection a single dose of the compound indicated is administered by the route indicated. The animals are observed for a 30 day period and deaths are recorded daily. The CD50 for 14 and 30 days as determined by the method of Reed and Muench, American Journal of Hygiene (1938), for each compound is tabulated:
7-[2-(5-Acetylamino-1,3,4-thiadiazol-2-ylthio)acetamido]cephalosporanic acid is tested as described in Example 5.

[28] = 18 h, second preparation (Example 3), read-out: minimum inhibitory concentration (MIC)
[29] = first preparation (Example 2), HBr salt, 35° C., 18 hours, read-out: minimum concentration (MIC) required to completely inhibit growth

CC(=O)OCC1=C(C(=O)O)N2C(=O)C(NC(=O)CSc3n[nH]c(=N)s3)C2SC1 (stereo not shown) [7-[2-(4,5-Dihydro-5-Imino-1,3,4-Thiadiazol-2-ylthio)Acetamido]Cephalosporanic Acid]
10/10: Deaths / Total No. Treated ([27]; 100 mg/kg., 14 Days) | Deaths / Total No. Treated ([27]; 100 mg/kg., 30 Days)
7.81 µg/mL: MIC [3] | MIC ([8]; Pantoea agglomerans, 27155, Example 4) | MIC ([12]; Klebsiella pneumoniae, 13883, Example 4) | MIC [14] | MIC ([25]; listed as B)
3.4 mg/kg: ED50 ([27]; 720 h, 30 Days)
250 µg/mL: MIC [15] | MIC [17]
1.95 µg/mL: MIC ([4]; Salmonella enterica, 13314, Example 4) | MIC [5] | MIC [11] | MIC [18] | MIC [19] | MIC [20]
> 250 µg/mL: MIC [2, 28] | MIC [2, 29] | MIC [6] | MIC [9] | MIC [10] | MIC [13] | MIC [16] | MIC [21] | MIC [22] | MIC [23]
31.3 µg/mL: MIC ([7]; Edwardsiella tarda, 15947, Example 4) | MIC ([25]; listed as A)
0/10: Deaths / Total No. Treated ([27]; 400 mg/kg., 14 Days) | Deaths / Total No. Treated ([27]; 400 mg/kg., 30 Days) | Deaths / Total No. Treated ([27]; 800 mg/kg., 14 Days)
1/10: Deaths / Total No. Treated ([27]; 800 mg/kg., 30 Days)
4/10: Deaths / Total No. Treated ([27]; 200 mg/kg., 14 Days) | Deaths / Total No. Treated ([27]; 200 mg/kg., 30 Days)
3.21 mg/kg: ED50 ([27]; 336 h, 14 Days)
15.6 µg/mL: MIC ([7]; Edwardsiella tarda, 15947, Example 4, read-out: MIC) | MIC ([8]; Pantoea agglomerans, 27155, Example 4, read-out: MIC) | MIC ([12]; Klebsiella pneumoniae, 13883, Example 4, read-out: MIC)
3.9 µg/mL: MIC [1, 28] | MIC [1, 29] | MIC ([4]; Salmonella enterica, 13314, Example 4, read-out: MIC)
62.5 µg/mL: MIC [24] | MIC [26]
